In patent US10617662B2, “Autophagy activation-induced compound for improving skin inflammation for aging” (INCOSPHARM CORPORATION, priority 2017, dated 2020):

Assays:
[1] = tested on: psoriasis animal model induced by imiquimod 5% cream; test: Psoriasis animal model, H&E staining of back tissue; type: in vivo, BALB/c mice; conditions: FIG. 15
Method: (§1) In order to confirm the psoriasis treatment effect by Compound 8 of the present invention, dorsal hair of 8-week-old BALB/c mice (female) was removed using hair removal cream (Veet®, Oxy Reckitt Benckiser, Cedex, France), and subsequently imiquimod 5% cream (Aldara®; 3M Pharmaceuticals, UK; 62.5 mg) was applied on the back and both ears of the mice twice in the morning and in the afternoon (Sensitization; Day 0). Then, after a barrier recovery period of 2 days, imiquimod 5% cream (62.5 mg/day) was applied repeatedly for 7 days (Induction stage; Day 2 -Day 8), thereby inducing the psoriasis animal model.
(§2) After inducing the psoriasis animal model, Compound 8 of the present invention dissolved in ethanol (0.5%) and cream containing Compound 8 of the present invention (The same composition as that of the cosmetic composition of Example 14 except that it contained 0.5% by weight of Compound 8) were applied on the back once in the morning for 5 days (Treatment Stage; Day 8-Day 12). An untreated control group and a disease control group (vehicle) were treated with cream not containing Compound 8 of the present invention (cosmetic composition of Comparative Example 2) and ethanol, and during the treatment period, imiquimod 5% cream was applied thereon every other day, thereby maintaining psoriasis. […]

[2] = tested on: psoriasis animal model induced by imiquimod 5% cream; test: Psoriasis animal model, transepidermal water loss (TEWL); type: in vivo, BALB/c mice; conditions: increased by 5% imiquimod; applied for 5 days, 0.5% in ethanol or 0.5% cream; FIG. 17
Method: as §1, §2

[3] = tested on: IL-1β (interleukin-1beta); test: ELISA for IL-1β in LPS-treated HEKa cells; type: cell-based, human; conditions: LPS-induced inflammatory condition, 10·M, FIG. 10
Method: ELISA (enzyme-linked immunosorbent assay) for IL-1β (interleukin-1beta) which is very closely related to atopic inflammation and psoriasis was performed.
As a specific experimental method, HEKa cells (Human Epidermal keratinocytes, adult), human-derived epidermal keratinocytes were seeded on a 24 well plate at a density of 1×10^5 cells, and cultured in an EpiLife medium (1× Human keratinocyte Growth supplement, 1× antibiotics) in an incubator under 37° C. and 5% CO2 for 24 hours.
After culturing, while an inflammatory condition was induced by treatment with LPS (lipopolysaccharides) in each well, further treatment was performed with Compound 8 of the present invention and the compound of the following Comparative Example at a concentration of 10·M, and then the cells were incubated for a certain period. After completing culturing, media were collected, and then ELISA for IL-1β was carried out, and the results are shown in FIG. 10.

[4] = tested on: ALOX12B (Arachidonate 12-lipoxygenase, 12R type); test: RT-PCR of psoriasis-related gene ALOX12B; type: cell-based, human; conditions: HEKa cells, 20 uM, FIGS. 2 and 3
Method: A psoriasis-related genes were selected from the cDNA array result in which Compound 8 of the present invention was treated in HaCaT cells. In order to analyze whether Compound 8 has an effect on psoriasis alleviation, RT-PCR analysis for IL-36′ (interleukin 36 gamma), KLK7 (Kallikrein-related peptidase 7), OASL (2′-5′-Oligoadenylate Synthetase Like) and ALOX12B (Arachidonate 12-lipoxygenase, 12R type) which are very closely related to psoriasis was carried out. Further, KRT16 (Keratin 16), KRT6 (Keratin 6) and KRT1 (Keratin 1), known as psoriasis-related proliferation, differentiation markers were confirmed by a western blot analysis. As the specific experimental method, HEKa cells (Human Epidermal keratinocytes, adult), human-derived epidermal keratinocytes were seeded on a 24 well plate at a density of 1×10^5 cells, and cultured in an EpiLife medium (1× Human keratinocyte Growth supplement, 1× antibiotics) in an incubator under 37° C. and 5% CO2 for 24 hours. […]

Compound: CCCCCCCCCCCCCCCC(=O)NCCCC[C@H](NC(=O)[C@H](CCCCN(CC(=O)O)CC(=O)O)N(CC(=O)O)CC(=O)O)C(=O)O [Compound 8]
- thickness of stratum corneum [1]: significantly reduced
- TEWL value [2]: remarkably reduced
- cytokine IL-1β secretion level [3]: significantly reduced
- expression level of ALOX12B gene [4]: significantly decreased
